In patent US20240293430A1, “WITHAFERIN A AND IMMUNE CHECKPOINT BLOCKER COMBINATION THERAPIES” (University of South Florida, priority 2023, published 2024):

Experiments:
[1] = tested on: ecto-CRT in LLC, H1650 and A549 cells; assay: Ecto-CRT (cell surface calreticulin) by flow cytometry, NSCLC; type: cell-based, mouse (LLC), human (H1650; conditions: 48 h
Method: Cells were treated with WFA for 48 h then collected using Accutase cell detachment solution. […] (FIG. 2E) Bone marrow-derived DC were co-cultured with WFA-pretreated LLC cells (24 h) in a ratio 5:1 of DC:LLC cells for 24 h.
In vitro WFA-treated or control cells were collected using Accutase cell detachment solution and stained with FACS-diluted (PBS, 10% FBS, 2 mMEDTA) pre-titrated fluorophore conjugated or primary unconjugated antibody solutions (Table 1) for 30 min on ice in the dark. In case of fluorophore-conjugated antibodies, samples are washed and immediately acquired after adding DAPI viability dye, while samples stained with unconjugated antibodies are incubated with the proper secondary fluorophore-conjugated antibody for 30 min before washing and acquisition. For in vivo experiments, the processed tumor or spleen single cell suspensions were used for surface staining with the pre-titrated antibodies (Table 1) for 30 min on ice in the dark. To exclude the dead cells from the analysis, a fixable live/dead Zombie Aqua viability kit (Biolegend, San Diego, CA, USA) was used according to the manufacturer's protocol. Samples were then fixed using 2% PFA for 15 min then washed and stored at 4° C. before acquisition. […]

[2] = tested on: LLC flank tumors; assay: LLC syngeneic mouse model, tumor growth; type: in vivo, C57BL/6 mice; conditions: i.p. every other day, five treatments; WFA 5 mg/kg, α-PD-L1 200 μg/mouse
Method: FIGS. 5A-5G depict that WFA sensitizes flank tumors to α-PD-L1 therapy and targets immunosuppressive MDSCs and T-regs. (FIG. 5A) Establishment of LLC flank tumors and treatment schedule. (FIG. 5B) Tumor volume measurement in mm^3 and tumor weight at the endpoint of the experiment. (FIG. 5C) Change in the levels of ecto-CRT in tumors was measured using flow cytometry. (FIGS. 5D-5G) Flow cytometry was used to determine the change in immune cell infiltration in collected tumors. […] Moreover, WFA reduced the immunosuppressive T regs (FIG. 5F) and CD11b+Gr1+MDSC (FIG. 5G) populations. The means of two independent experiments ±SEM are shown, and the statistical significance was calculated using one-way ANOVA and a Fisher LSD post hoc test where * and #represent p<0.05 and ** and ##represent p<0.01. * Symbols refer to the difference between the vehicle control and WFA, while #refers to comparisons between the vehicle control and WFA+α-PD-L1 combination.
C57BL/6 mice were purchased from the Jackson Laboratory (Bar Harbor, ME, USA) and acclimated for a week. To establish the LLC syngeneic tumors, C57BL/6 mice were injected with a half million cells on the right flank and monitored until tumors were first palpable (2-3 mm diameter). […] Tumor volumes (mm^3) were calculated using the equation (length^2 x width/2), where the length is defined as the bigger tumor dimension. […]

CC1=C(CO)C(=O)O[C@@H]([C@@H](C)[C@H]2CC[C@H]3[C@@H]4C[C@H]5O[C@]56[C@@H](O)C=CC(=O)[C@]6(C)[C@H]4CC[C@]23C)C1 [WFA, Withaferin A]
ecto-CRT expression [1]: increased
tumor size / tumor growth [2]: non-significant reduction
